In the NIST ThermoML archive (doi:10.1021/je700260f):

Conditions: Liquid, Vibrating tube method

FC(C(F)(F)F)C(F)(F)F [1,1,1,2,3,3,3-heptafluoropropane]
Conditions | mass density [kg/m3]
293.14 K, 33440 kPa | 1551.5
293.14 K, 33474 kPa | 1551.5
293.14 K, 33518 kPa | 1551.7
293.14 K, 33554 kPa | 1551.8
293.14 K, 33589 kPa | 1552
293.15 K, 458 kPa | 1409.2
293.15 K, 459 kPa | 1409.3
293.15 K, 461 kPa | 1409.2
293.15 K, 466 kPa | 1409.3
293.15 K, 478 kPa | 1409.2
293.15 K, 498 kPa | 1409.3
293.15 K, 525 kPa | 1409.6
293.15 K, 545 kPa | 1409.8
293.15 K, 569 kPa | 1409.9
293.15 K, 591 kPa | 1410.2
293.15 K, 616 kPa | 1410.3
293.15 K, 647 kPa | 1410.5
293.15 K, 682 kPa | 1410.9
293.15 K, 712 kPa | 1411
293.15 K, 757 kPa | 1411.3
293.15 K, 1646 kPa | 1417.7
293.15 K, 1682 kPa | 1417.8
293.15 K, 1714 kPa | 1418.1
293.15 K, 1855 kPa | 1419.1
293.15 K, 2431 kPa | 1422.8
293.15 K, 2456 kPa | 1423.1
293.15 K, 2481 kPa | 1423.1
293.15 K, 2506 kPa | 1423.3
293.15 K, 2536 kPa | 1423.7
293.15 K, 2566 kPa | 1423.7
293.15 K, 2590 kPa | 1424
293.15 K, 2619 kPa | 1424.2
293.15 K, 2653 kPa | 1424.3
293.15 K, 3787 kPa | 1431.6
293.15 K, 3853 kPa | 1432
293.15 K, 3906 kPa | 1432.2
293.15 K, 3939 kPa | 1432.5
293.15 K, 3976 kPa | 1432.7
293.15 K, 4019 kPa | 1432.9
293.15 K, 4053 kPa | 1433.1
293.15 K, 4077 kPa | 1433.4
293.15 K, 4124 kPa | 1433.7
293.15 K, 4157 kPa | 1434
293.15 K, 4195 kPa | 1434
293.15 K, 4219 kPa | 1434.2
293.15 K, 4259 kPa | 1434.4
293.15 K, 4286 kPa | 1434.6
293.15 K, 4322 kPa | 1434.7
293.15 K, 4367 kPa | 1435
293.15 K, 4394 kPa | 1435.3
293.15 K, 4425 kPa | 1435.6
293.15 K, 4452 kPa | 1435.7
293.15 K, 4488 kPa | 1435.9
293.15 K, 4515 kPa | 1435.9
293.15 K, 4556 kPa | 1436.2
293.15 K, 4587 kPa | 1436.4
293.15 K, 4614 kPa | 1436.6
293.15 K, 4655 kPa | 1436.8
293.15 K, 4687 kPa | 1437
293.15 K, 4727 kPa | 1437.2
293.15 K, 4754 kPa | 1437.4
293.15 K, 4791 kPa | 1437.7
293.15 K, 4815 kPa | 1437.8
293.15 K, 4846 kPa | 1438.1
293.15 K, 5062 kPa | 1439.2
293.15 K, 5095 kPa | 1439.5
293.15 K, 5137 kPa | 1439.6
293.15 K, 5170 kPa | 1440
293.15 K, 5198 kPa | 1440
293.15 K, 5231 kPa | 1440.3
293.15 K, 5259 kPa | 1440.4
293.15 K, 5292 kPa | 1440.6
293.15 K, 5321 kPa | 1440.8
293.15 K, 5364 kPa | 1440.9
293.15 K, 5392 kPa | 1441.2
293.15 K, 5435 kPa | 1441.5
293.15 K, 5472 kPa | 1441.7
293.15 K, 5500 kPa | 1441.9
293.15 K, 5537 kPa | 1442.1
293.15 K, 5566 kPa | 1442.2
293.15 K, 5610 kPa | 1442.3
293.15 K, 5639 kPa | 1442.6
293.15 K, 5678 kPa | 1442.8
293.15 K, 5720 kPa | 1443
293.15 K, 5755 kPa | 1443.2
293.15 K, 5784 kPa | 1443.4
293.15 K, 5818 kPa | 1443.6
293.15 K, 5848 kPa | 1443.8
293.15 K, 5896 kPa | 1444
293.15 K, 5921 kPa | 1444.1
293.15 K, 5955 kPa | 1444.4
293.15 K, 5984 kPa | 1444.6
293.15 K, 6018 kPa | 1444.7
293.15 K, 6043 kPa | 1444.8
293.15 K, 6073 kPa | 1445
293.15 K, 6113 kPa | 1445.2
293.15 K, 6138 kPa | 1445.5
293.15 K, 6174 kPa | 1445.6
293.15 K, 6205 kPa | 1445.7
293.15 K, 6235 kPa | 1445.9
293.15 K, 6260 kPa | 1446.1
293.15 K, 6295 kPa | 1446.2
293.15 K, 6323 kPa | 1446.4
293.15 K, 6351 kPa | 1446.6
293.15 K, 6375 kPa | 1446.8
293.15 K, 6408 kPa | 1446.9
293.15 K, 6437 kPa | 1447
293.15 K, 6477 kPa | 1447.3
293.15 K, 6508 kPa | 1447.5
293.15 K, 6534 kPa | 1447.6
293.15 K, 6566 kPa | 1447.6
293.15 K, 6593 kPa | 1447.9
293.15 K, 6624 kPa | 1448.1
293.15 K, 6655 kPa | 1448.4
293.15 K, 6682 kPa | 1448.4
293.15 K, 6721 kPa | 1448.5
293.15 K, 6752 kPa | 1448.8
293.15 K, 6792 kPa | 1449
293.15 K, 6823 kPa | 1449.3
293.15 K, 6862 kPa | 1449.5
293.15 K, 6885 kPa | 1449.5
293.15 K, 6918 kPa | 1449.8
293.15 K, 6944 kPa | 1449.9
293.15 K, 6979 kPa | 1450
293.15 K, 7002 kPa | 1450.1
293.15 K, 7034 kPa | 1450.4
293.15 K, 7074 kPa | 1450.7
293.15 K, 7106 kPa | 1450.7
293.15 K, 7134 kPa | 1450.8
293.15 K, 7160 kPa | 1450.9
293.15 K, 7196 kPa | 1451.2
293.15 K, 7223 kPa | 1451.4
293.15 K, 7255 kPa | 1451.5
293.15 K, 7292 kPa | 1451.6
293.15 K, 7319 kPa | 1451.9
293.15 K, 7352 kPa | 1452
293.15 K, 7380 kPa | 1452.1
293.15 K, 7413 kPa | 1452.4
293.15 K, 7445 kPa | 1452.6
293.15 K, 7478 kPa | 1452.7
293.15 K, 7506 kPa | 1452.9
293.15 K, 7543 kPa | 1453.2
293.15 K, 7575 kPa | 1453.2
293.15 K, 7829 kPa | 1454.6
293.15 K, 8576 kPa | 1458.4
293.15 K, 8615 kPa | 1458.6
293.15 K, 8640 kPa | 1458.7
293.15 K, 8669 kPa | 1458.9
293.15 K, 8716 kPa | 1459.1
293.15 K, 8745 kPa | 1459.3
293.15 K, 8774 kPa | 1459.5
293.15 K, 8814 kPa | 1459.7
293.15 K, 8862 kPa | 1459.9
293.15 K, 8888 kPa | 1460
293.15 K, 8923 kPa | 1460.2
293.15 K, 8958 kPa | 1460.4
293.15 K, 8988 kPa | 1460.5
293.15 K, 9023 kPa | 1460.7
293.15 K, 9057 kPa | 1461
293.15 K, 9081 kPa | 1461.1
293.15 K, 9121 kPa | 1461.1
293.15 K, 9156 kPa | 1461.3
293.15 K, 9182 kPa | 1461.5
293.15 K, 9258 kPa | 1461.9
293.15 K, 9989 kPa | 1465.5
293.15 K, 10025 kPa | 1465.7
293.15 K, 10056 kPa | 1465.8
293.15 K, 10087 kPa | 1465.9
293.15 K, 10128 kPa | 1466.3
293.15 K, 10154 kPa | 1466.4
293.15 K, 10195 kPa | 1466.7
293.15 K, 10240 kPa | 1466.8
293.15 K, 10275 kPa | 1466.7
293.15 K, 10316 kPa | 1467.1
293.15 K, 10555 kPa | 1468.1
293.15 K, 10597 kPa | 1468.5
293.15 K, 10638 kPa | 1468.7
293.15 K, 10669 kPa | 1468.7
293.15 K, 10706 kPa | 1469
293.15 K, 10738 kPa | 1469.2
293.15 K, 10775 kPa | 1469.4
293.15 K, 10808 kPa | 1469.4
293.15 K, 10851 kPa | 1469.6
293.15 K, 10882 kPa | 1469.7
293.15 K, 10920 kPa | 1470
293.15 K, 10958 kPa | 1470.2
293.15 K, 11044 kPa | 1470.6
293.15 K, 11082 kPa | 1470.6
293.15 K, 11132 kPa | 1470.9
293.15 K, 11159 kPa | 1471.4
293.15 K, 11209 kPa | 1471.3
293.15 K, 11254 kPa | 1471.6
293.15 K, 11292 kPa | 1471.8
293.15 K, 11324 kPa | 1471.9
293.15 K, 11368 kPa | 1472.1
293.15 K, 11401 kPa | 1472.3
293.15 K, 11439 kPa | 1472.4
293.15 K, 11473 kPa | 1472.6
293.15 K, 11518 kPa | 1472.8
293.15 K, 11556 kPa | 1472.9
293.15 K, 11601 kPa | 1473.2
293.15 K, 11629 kPa | 1473.3
293.15 K, 11668 kPa | 1473.4
293.15 K, 11713 kPa | 1473.7
293.15 K, 11752 kPa | 1473.8
